Tests used:
[1] = Half life in C57 mouse at 1 mg/kg, iv; format: ADME, organism-based; set-up: dose 1 mg/kg, route intravenous; conditions: in vivo
[2] = Clearance in C57 mouse at 1 mg/kg, iv and 10 mg/kg, po; format: ADME, organism-based; conditions: in vivo
[3] = Volume of distribution at steady state in C57 mouse at 1 mg/kg, iv and 10 mg/kg, po; format: ADME, organism-based; conditions: in vivo, read-out: Vdss
[4] = Terminal half life in C57 mouse at 10 mg/kg, po; format: ADME, organism-based; set-up: dose 10 mg/kg, route oral; conditions: in vivo, read-out: beta t1/2 (converted)
[5] = Tmax in C57 mouse at 1 mg/kg, iv and 10 mg/kg, po; format: ADME, organism-based; conditions: in vivo
[6] = AUC (0 to infinity) in C57 mouse at 1 mg/kg, iv and 10 mg/kg, po; format: ADME, organism-based; conditions: plasma
[7] = Cmax in male C57 mice after 10 mg/kg oral dose; format: ADME, organism-based; set-up: dose 10 mg/kg, route oral; conditions: C57, mouse, in vivo
[8] = Bioavailability in C57 mouse at 1 mg/kg, iv and 10 mg/kg, po; format: ADME, organism-based; conditions: in vivo
[9] = biological target: T1, Oxysterols receptor LXR-beta (Homo sapiens, UniProt P55055)
T1 sequence (P55055 whole entry): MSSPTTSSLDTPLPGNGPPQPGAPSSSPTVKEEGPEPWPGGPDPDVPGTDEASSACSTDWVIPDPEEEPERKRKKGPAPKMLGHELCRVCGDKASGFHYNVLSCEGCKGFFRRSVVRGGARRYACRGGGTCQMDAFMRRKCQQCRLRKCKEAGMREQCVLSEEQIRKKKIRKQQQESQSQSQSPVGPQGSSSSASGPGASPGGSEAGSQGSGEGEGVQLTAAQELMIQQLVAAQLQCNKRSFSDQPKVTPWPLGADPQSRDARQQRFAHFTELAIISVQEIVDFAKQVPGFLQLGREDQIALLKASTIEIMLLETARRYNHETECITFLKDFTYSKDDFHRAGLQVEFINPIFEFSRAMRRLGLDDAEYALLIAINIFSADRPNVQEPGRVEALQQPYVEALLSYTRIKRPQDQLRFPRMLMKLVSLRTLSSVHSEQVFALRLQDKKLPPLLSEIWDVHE

[10] = biological target: T1, Oxysterols receptor LXR-beta; experiment: Agonist activity at human recombinant LXRbeta ligand binding domain in human HuH7 cells co-transfected with fused Gal4-DBD by transactivation assay; format: cell-based, Huh-7
[11] = biological target: T2, Oxysterols receptor LXR-alpha (Homo sapiens, UniProt Q13133)
[12] = test system: THP-1; experiment: Effect on ABCA1 gene expression in human differentiated THP1 cells relative to TO901317; format: functional
[13] = test system: THP-1; experiment: Stimulation of [3H]cholesterol efflux in human THP1 foam cells loaded with ac-LDL; format: functional, cell-based
[14] = test system: THP-1; experiment: Stimulation of [3H]cholesterol efflux in human THP1 foam cells loaded with ac-LDL relative to TO901317; format: functional
[15] = test system: HepG2; experiment: Effect on SREBP1c gene expression in human HepG2 cells; format: functional, cell-based
[16] = test system: HepG2; experiment: Effect on SREBP1c gene expression in human HepG2 cells relative to TO901317; format: functional
[17] = test system: HepG2; experiment: Effect on triglyceride accumulation in human HepG2 cells relative to TO901317; format: functional
[18] = test system: HepG2; experiment: Effect on triglyceride accumulation in human HepG2 cells; format: functional, cell-based
[19] = test system: Mus musculus; experiment: Decrease in total cholesterol level in LDL receptor knockout C57BL/6 mouse plasma at 10 mg/kg administered with Western diet after 8 weeks; format: functional; set-up: scale not given: the % may be the effect or the level left
[20] = test system: Mus musculus; experiment: Reduction in atherosclerotic lesion size in LDL receptor knockout C57BL/6 mouse thoracic aorta at 10 mg/kg administered with Western diet after 8 weeks by oil Red-O staining; format: functional; set-up: scale not given: the % may be the effect or the level left
[21] = test system: Syrian golden hamster; experiment: Effect on triglyceride level in golden Syrian hamster plasma at 3 mg/kg administered with chow diet for 7 days measured after 2 hrs of final dose; format: functional, Mesocricetus auratus
[22] = test system: Syrian golden hamster; experiment: Induction of FAS gene expression in golden Syrian hamster liver at 3 mg/kg administered with chow diet for 7 days measured after 2 hrs of final dose by real time PCR; format: functional, Mesocricetus auratus
[23] = test system: THP-1; experiment: Effect on ABCA1 gene expression in human differentiated THP1 cells; format: functional, cell-based
[24] = test system: Mus musculus; experiment: Upregulation of ABCA1 gene expression in LDL receptor knockout C57BL/6 mouse duodenum at 10 mg/kg administered with Western diet; format: functional; conditions: route oral
[25] = test system: Mus musculus; experiment: Increase in CYP7A1 gene expression in LDL receptor knockout C57BL/6 mouse liver at 10 mg/kg administered with Western diet; format: functional
[26] = biological target: T2, Oxysterols receptor LXR-alpha; remark: listed apart in the source

Compound | EC50 [10] [nM] | Efficacy [12] [%] | EC50 [13] [nM] | Efficacy [14] [%] | EC50 [15] [nM] | Efficacy [16] [%] | Efficacy [17] [%] | EC50 [18] [nM] | Activity [19] [%] | Activity [20] [%] | further results
FC(F)(F)c1cccc2c(-c3ccccc3)n(Cc3ccccc3)nc12 |  |  |  |  |  |  |  |  |  |  | half-life [1]: 1.9 h; clearance [2]: 81 mL/min/kg; Vd [3]: 5.2 L/kg; half-life [4]: 2.2 h; Tmax [5]: 0.25 h; AUC(0-inf) [6]: 321 ng·h/mL; Cmax [7]: 124 ng/mL; bioavailability [8]: 16%
O=C(O)Cc1ccc(CNc2cccc(-c3c(Cc4ccccc4)cnc4c(C(F)(F)F)cccc34)c2)cc1 | 90 |  |  |  |  |  |  |  |  |  | IC50 [9]: 2 nM; IC50 [11]: 8 nM
O=S(=O)(c1ccccc1)N(CC(F)(F)F)c1ccc(C(O)(C(F)(F)F)C(F)(F)F)cc1 [T091317] |  | 100 | 3 | 100 | 61 | 100 | 100 |  |  |  | 
O=C(O)Cc1ccc(COc2cccc(-c3c(Cc4ccccc4)cnc4c(C(F)(F)F)cccc34)c2)cc1 |  | 155 | 6 | 88 | 120 | 96 | 85 | 223 | 20 | 38 | Activity [21]: 25%; fold change (FC) [22]: 4
O=C(O)Cc1cccc(OCCCN(Cc2cccc(C(F)(F)F)c2Cl)CC(c2ccccc2)c2ccccc2)c1 | 310 | 178 | 31 | 84 | 210 | 137 | 45 | 2000 | 17 | 40 | EC50 [23]: 434 nM; fold change (FC) [24]: 6.9; fold change (FC) [25]: 1.9; EC50 [26]: 660 nM
